According to ChEMBL document CHEMBL1145390, “Synthesis and preliminary biological characterization of new semisynthetic derivatives of ramoplanin” (J Med Chem, 2007):
In brackets after ≈: the same amount, converted by molar mass.

Columns and labels:
[1] = system: Escherichia coli; test: Antibacterial activity against Escherichia coli SKF-12140 after 24 hrs by broth microdilution method; type: functional
[2] = system: Staphylococcus aureus; test: Antibacterial activity against vancomycin-intermediate resistant Staphylococcus aureus clinical isolate after 24 hrs by broth microdilution method; type: functional
[3] = system: Staphylococcus aureus; test: Antibacterial activity against methicillin-resistant Staphylococcus aureus clinical isolate after 24 hrs by broth microdilution method; type: functional; conditions: read-out: MIC
[4] = system: Enterococcus faecium; test: Antibacterial activity against vancomycin A-resistant Enterococcus faecium clinical isolate after 24 hrs by broth microdilution method; type: functional
[5] = Toxicity assessed as hemolysis in erythrocytes at 90 mg/L; type: cell-based, Erythrocyte; conditions: human; for Activity: erythrocyte; for hemolysis at 90 mg/L: erythrocytes, read-out: Activity
[6] = system: Candida albicans; test: Antifungal activity against Candida albicans SKF-2270 after 24 hrs by broth microdilution method; type: functional
[7] = system: Enterococcus faecalis; test: Antibacterial activity against Enterococcus faecalis after 24 hrs by broth microdilution method; type: functional
[8] = Toxicity assessed as hemolysis in erythrocytes at 180 mg/L; type: cell-based, Erythrocyte; conditions: human; for Activity: erythrocyte; for hemolysis at 180 mg/L: erythrocytes, read-out: Activity
[9] = system: Staphylococcus aureus; test: Antibacterial activity against methicillin-resistant and vancomycin-intermediate resistant Staphylococcus aureus clinical isolate after 24 hrs by broth microdilution method; type: functional
[10] = system: Enterococcus faecalis; test: Antibacterial activity against vancomycin A-resistant Enterococcus faecalis after 24 hrs by broth microdilution method; type: functional
[11] = system: Streptococcus pyogenes; test: Antibacterial activity against Streptococcus pyogenes C203 after 24 hrs by broth microdilution method; type: functional; conditions: C203, 24 h
[12] = system: Enterococcus faecium; test: Antibacterial activity against Enterococcus faecium after 24 hrs by broth microdilution method; type: functional
[13] = system: Staphylococcus aureus; test: Antibacterial activity against Staphylococcus aureus Smith after 24 hrs by broth microdilution method; type: functional

Structure (SMILES)	MIC [2] [µg/mL]	MIC [3] [µg/mL]	MIC ([4]; read-out: MIC) [µg/mL]	MIC ([7]; read-out: MIC) [µg/mL]	MIC ([10]; read-out: MIC) [µg/mL]	MIC ([12]; read-out: MIC) [µg/mL]	MIC ([13]; read-out: MIC) [µg/mL]	MIC ([1]; read-out: MIC) [µg/mL]	hemolysis at 90 mg/L [5] [%]	MIC ([6]; read-out: MIC) [µg/mL]	hemolysis at 180 mg/L [8] [%]	MIC ([9]; read-out: MIC) [µg/mL]	MIC ([11]; read-out: MIC) [µg/mL]	other results
CC(C)C[C@@H]1NC(=O)CNC(=O)[C@H](c2ccc(O)cc2)NC(=O)[C@@H]([C@@H](C)O)NC(=O)[C@H](c2ccc(O[C@H]3O[C@H](CO)[C@@H](O)[C@H](O)[C@@H]3O[C@H]3O[C@H](CO)[C@@H](O)[C@H](O)[C@@H]3O)cc2)NC(=O)[C@@H](CCCN)NC(=O)[C@H](Cc2ccccc2)NC(=O)[C@H]([C@@H](C)O)NC(=O)[C@@H](c2ccc(O)cc2)NC(=O)[C@H](c2ccc(O)cc2)NC(=O)[C@@H](C(C)C)NC(=O)[C@@H](CCCN)NC(=O)[C@@H](c2ccc(O)cc2)NC(=O)[C@@H](CNC(=O)[C@H](CC(N)=O)NC(=O)Cc2ccccc2)[C@@H](C(N)=O)OC(=O)[C@H](c2ccc(O)c(Cl)c2)NC(=O)[C@@H](C)NC1=O	0.008 (≈ 0.00314 µM)	0.002 (≈ 0.000785 µM)	0.004 (≈ 0.00157 µM)	0.004 (≈ 0.00157 µM)	0.004 (≈ 0.00157 µM)	0.008 (≈ 0.00314 µM)	0.002 (≈ 0.000785 µM)							MIC [1]: > 32 µg/mL; Activity [5]: 0%; MIC [6]: > 32 µg/mL; Activity [8]: 0%; MIC [9]: 16 µg/mL (≈ 6.28 µM); MIC [11]: 0.06 µg/mL (≈ 0.0235 µM)
CC(C)C[C@@H]1NC(=O)CNC(=O)[C@H](c2ccc(O)cc2)NC(=O)[C@@H]([C@@H](C)O)NC(=O)[C@H](c2ccc(O[C@H]3O[C@H](CO)[C@@H](O)[C@H](O)[C@@H]3O[C@H]3O[C@H](CO)[C@@H](O)[C@H](O)[C@@H]3O)cc2)NC(=O)[C@@H](CCCN)NC(=O)[C@H](Cc2ccccc2)NC(=O)[C@H]([C@@H](C)O)NC(=O)[C@@H](c2ccc(O)cc2)NC(=O)[C@H](c2ccc(O)cc2)NC(=O)[C@@H](C(C)C)NC(=O)[C@@H](CCCN)NC(=O)[C@@H](c2ccc(O)cc2)NC(=O)[C@@H](CNC(=O)[C@H](CC(N)=O)NC(=O)CCc2ccccc2)[C@@H](C(N)=O)OC(=O)[C@H](c2ccc(O)c(Cl)c2)NC(=O)[C@@H](C)NC1=O	8 (≈ 3.12 µM)	2 (≈ 0.781 µM)	2 (≈ 0.781 µM)	2 (≈ 0.781 µM)	2 (≈ 0.781 µM)	1 (≈ 0.39 µM)	16 (≈ 6.24 µM)	> 32	0	> 32	0	8 (≈ 3.12 µM)	≤ 0.03	
CCCC(=O)N[C@@H](CC(N)=O)C(=O)NC[C@@H]1C(=O)N[C@H](c2ccc(O)cc2)C(=O)N[C@H](CCCN)C(=O)N[C@H](C(C)C)C(=O)N[C@@H](c2ccc(O)cc2)C(=O)N[C@H](c2ccc(O)cc2)C(=O)N[C@@H]([C@@H](C)O)C(=O)N[C@@H](Cc2ccccc2)C(=O)N[C@H](CCCN)C(=O)N[C@@H](c2ccc(O[C@H]3O[C@H](CO)[C@@H](O)[C@H](O)[C@@H]3O[C@H]3O[C@H](CO)[C@@H](O)[C@H](O)[C@@H]3O)cc2)C(=O)N[C@H]([C@@H](C)O)C(=O)N[C@@H](c2ccc(O)cc2)C(=O)NCC(=O)N[C@@H](CC(C)C)C(=O)N[C@H](C)C(=O)N[C@@H](c2ccc(O)c(Cl)c2)C(=O)O[C@@H]1C(N)=O	> 32	32 (≈ 12.8 µM)	16 (≈ 6.4 µM)	16 (≈ 6.4 µM)	16 (≈ 6.4 µM)	32 (≈ 12.8 µM)	> 32	> 32	0	> 32	2	> 32	0.5 (≈ 0.2 µM)	
CCCCCCCCC(=O)N[C@@H](CC(N)=O)C(=O)NC[C@@H]1C(=O)N[C@H](c2ccc(O)cc2)C(=O)N[C@H](CCCN)C(=O)N[C@H](C(C)C)C(=O)N[C@@H](c2ccc(O)cc2)C(=O)N[C@H](c2ccc(O)cc2)C(=O)N[C@@H]([C@@H](C)O)C(=O)N[C@@H](Cc2ccccc2)C(=O)N[C@H](CCCN)C(=O)N[C@@H](c2ccc(O[C@H]3O[C@H](CO)[C@@H](O)[C@H](O)[C@@H]3O[C@H]3O[C@H](CO)[C@@H](O)[C@H](O)[C@@H]3O)cc2)C(=O)N[C@H]([C@@H](C)O)C(=O)N[C@@H](c2ccc(O)cc2)C(=O)NCC(=O)N[C@@H](CC(C)C)C(=O)N[C@H](C)C(=O)N[C@@H](c2ccc(O)c(Cl)c2)C(=O)O[C@@H]1C(N)=O	4 (≈ 1.56 µM)	1 (≈ 0.389 µM)	< 0.03	0.06 (≈ 0.0233 µM)	0.06 (≈ 0.0233 µM)	0.125 (≈ 0.0486 µM)	0.25 (≈ 0.0973 µM)	> 32	0	> 32	5	8 (≈ 3.11 µM)	0.125 (≈ 0.0486 µM)	
Cc1ccc(C(=O)N[C@@H](CC(N)=O)C(=O)NC[C@@H]2C(=O)N[C@H](c3ccc(O)cc3)C(=O)N[C@H](CCCN)C(=O)N[C@H](C(C)C)C(=O)N[C@@H](c3ccc(O)cc3)C(=O)N[C@H](c3ccc(O)cc3)C(=O)N[C@@H]([C@@H](C)O)C(=O)N[C@@H](Cc3ccccc3)C(=O)N[C@H](CCCN)C(=O)N[C@@H](c3ccc(O[C@H]4O[C@H](CO)[C@@H](O)[C@H](O)[C@@H]4O[C@H]4O[C@H](CO)[C@@H](O)[C@H](O)[C@@H]4O)cc3)C(=O)N[C@H]([C@@H](C)O)C(=O)N[C@@H](c3ccc(O)cc3)C(=O)NCC(=O)N[C@@H](CC(C)C)C(=O)N[C@H](C)C(=O)N[C@@H](c3ccc(O)c(Cl)c3)C(=O)O[C@@H]2C(N)=O)cc1	8 (≈ 3.14 µM)	4 (≈ 1.57 µM)	2 (≈ 0.785 µM)	2 (≈ 0.785 µM)	2 (≈ 0.785 µM)	4 (≈ 1.57 µM)	4 (≈ 1.57 µM)	> 32	5	> 32	3	4 (≈ 1.57 µM)	< 0.03	
CCCCCCCC(=O)N[C@@H](CC(N)=O)C(=O)NC[C@@H]1C(=O)N[C@H](c2ccc(O)cc2)C(=O)N[C@H](CCCN)C(=O)N[C@H](C(C)C)C(=O)N[C@@H](c2ccc(O)cc2)C(=O)N[C@H](c2ccc(O)cc2)C(=O)N[C@@H]([C@@H](C)O)C(=O)N[C@@H](Cc2ccccc2)C(=O)N[C@H](CCCN)C(=O)N[C@@H](c2ccc(O[C@H]3O[C@H](CO)[C@@H](O)[C@H](O)[C@@H]3O[C@H]3O[C@H](CO)[C@@H](O)[C@H](O)[C@@H]3O)cc2)C(=O)N[C@H]([C@@H](C)O)C(=O)N[C@@H](c2ccc(O)cc2)C(=O)NCC(=O)N[C@@H](CC(C)C)C(=O)N[C@H](C)C(=O)N[C@@H](c2ccc(O)c(Cl)c2)C(=O)O[C@@H]1C(N)=O	0.002 (≈ 0.000782 µM)	0.0005 (≈ 0.000196 µM)												MIC [1]: > 32 µg/mL; MIC [4]: 0.125 µg/mL (≈ 0.0489 µM); Activity [5]: 0%; MIC [6]: > 32 µg/mL; MIC [7]: 0.125 µg/mL (≈ 0.0489 µM); Activity [8]: 16%; MIC [9]: 4 µg/mL (≈ 1.56 µM); MIC [10]: 0.06 µg/mL (≈ 0.0235 µM); MIC [11]: < 0.03 µg/mL; MIC [12]: 0.25 µg/mL (≈ 0.0978 µM); MIC [13]: 0.25 µg/mL (≈ 0.0978 µM)
CC(C)C[C@@H]1NC(=O)CNC(=O)[C@H](c2ccc(O)cc2)NC(=O)[C@@H]([C@@H](C)O)NC(=O)[C@H](c2ccc(O[C@H]3O[C@H](CO)[C@@H](O)[C@H](O)[C@@H]3O[C@H]3O[C@H](CO)[C@@H](O)[C@H](O)[C@@H]3O)cc2)NC(=O)[C@@H](CCCN)NC(=O)[C@H](Cc2ccccc2)NC(=O)[C@H]([C@@H](C)O)NC(=O)[C@@H](c2ccc(O)cc2)NC(=O)[C@H](c2ccc(O)cc2)NC(=O)[C@@H](C(C)C)NC(=O)[C@@H](CCCN)NC(=O)[C@@H](c2ccc(O)cc2)NC(=O)[C@@H](CNC(=O)[C@H](CC(N)=O)NC(=O)Cc2ccc(O)cc2)[C@@H](C(N)=O)OC(=O)[C@H](c2ccc(O)c(Cl)c2)NC(=O)[C@@H](C)NC1=O	> 32	> 32		> 32		> 32	> 32	> 32	0	> 32	0	> 32	1 (≈ 0.39 µM)	
